Experimental data reported in patent US20260356803A1, “Nicotinamide derivatives” (Board of Regents, The University of Texas System, priority 2024, published 2026).
“Also recorded” adds a separate entry of the source.

What was measured:
[1] = tested on: mouse embryonic fibroblasts; conditions: cited from earlier work
[2] = mice; dosed orally (b5); listed as compound 21; cited from earlier work
[3] = tested on: HCT116 cells; test: Cas9-expressing HCT116 cell viability; assay type: cell-based
Description: (§1) To gain insight into the mechanism of 9 and the relevance of Nam, we pursued two independent and complementary unbiased genetic approaches. First, we performed a genome-wide pooled Clustered Regularly Interspaced Short Palindromic Repeats (CRISPR) and CRISPR-associated protein 9 (Cas9) knockout screen to identify genes whose loss of function can enhance or suppress compound 9 activity. […] We cultured Cas9-expressing HCT116 cells in 10% FBS Nam-free DMEM and transduced with a lentiviral single guide RNA (sgRNA) library designed to silence 19,114 human genes.^11 These cells were treated with either vehicle (DMSO) or 9 for 30 days by which time the 9-treated cells had 7.6 fewer population doublings. Then, relative sgRNA sequences in the resulting cells were determined by massively parallel sequencing of PCR products amplified from genomic DNA, and the relative impact of each gene was derived from the sgRNA reads.
(§2) These observations, taken together, support the hypothesis that the activity of compound 9 depends on NAMPT and NMNAT1.
In 96-well assay plates (Corning #2903), 2,000 cells were plated per well in 100 μL of medium and allowed to adhere overnight. The next day, compounds or Nam suspended in DMSO were dispensed to the assayed wells using a D300e Digital Dispenser (Tecan). All wells were normalized to 0.5% DMSO. 72 hours after incubation at 37 °C in 5% CO2, cell viability was assayed using an ATP-based luminescent viability assay, CellTiter-Glo (Promega #G8462). CellTiter-Glo substrate was mixed 1:1 with phosphate-buffered saline (PBS) supplemented with 1% Triton X-100, and 40 μL of this mixture was added to the assay wells. After the plates were shaken on a microplate shaker for 10 minutes at room temperature, luminescence was recorded using a Synergy 2 Microplate Reader or Cytation 5 plate reader (BioTek). In Prism 9 software (GraphPad), ten-point dose response curves were plotted with baseline-correction to the vehicle control well, and IC50 values were calculated by curve fitting using asymmetric (five parameter), least squares fit.

[4] = tested on: Cas9-expressing HCT116 cells; test: Genome-wide pooled CRISPR/Cas9 knockout screen in HCT116; assay type: cell-based, human
Description: as §1, §2

IC50 ([3]; Cas9-expressing HCT116, 10% FBS Nam-free DMEM) [nM] | average increase in IC50 on NMNAT1 knockout ([3]; HCT116, three independent NMNAT1 sgRNAs) [fold] | SMILES | toxicity to mouse embryonic fibroblasts [1] | bioavailability [2] | rescue by 100 μM Nam ([3]; 10% FBS Nam-free DMEM) | enrichment of sgRNA reads for NAMPT ([4]; 9-treated cells, 30 days) [fold] | increase in sgRNA reads targeting NMNAT1 ([4]; 9-treated cells, 30 days) [fold] | fewer population doublings ([4]; 9-treated versus vehicle, 30 days) [population doublings] | rank of NAMPT among enriched genes ([4]; out of 19,114 genes)
– | – | O=C(Nc1cccnc1)c1cccs1 [Compound 1, N-(pyridin-3-yl)thiophene-2-carboxamide] | nontoxic | bioavailable when dosed orally; also recorded: bioavailable in mice | – | – | – | – | –
20.8 | 6.0 | O=C(Nc1cccs1)c1cccnc1 [Compound 9, N-(Thiophen-2-yl)nicotinamide] | – | – | rescued by 100 μM Nam | 2.1 | 5.2 | 7.6 | 101
